Source: ChEMBL document CHEMBL1139807, “Discovery of (-)-6-[2-[4-(3-fluorophenyl)-4-hydroxy-1-piperidinyl]-1-hydroxyethyl]-3,4-dihydro-2(1H)-quinolinone--a potent NR2B-selective N-methyl D-aspartate (NMDA) antagonist for the treatment of pain” (Bioorg Med Chem Lett, 2007)
pIC50: −log10 of the molar value.

Key:
[1] = target: Glutamate receptor ionotropic, NMDA 2B (Rattus norvegicus, UniProt P35439+Q00960); assay: Displacement of [3H]racemic CP-101606 from rat NR2B receptor in P2 membrane; format: cell membranes
Sequence of Glutamate receptor ionotropic, NMDA 2B (Q00960 whole entry, one chain of several): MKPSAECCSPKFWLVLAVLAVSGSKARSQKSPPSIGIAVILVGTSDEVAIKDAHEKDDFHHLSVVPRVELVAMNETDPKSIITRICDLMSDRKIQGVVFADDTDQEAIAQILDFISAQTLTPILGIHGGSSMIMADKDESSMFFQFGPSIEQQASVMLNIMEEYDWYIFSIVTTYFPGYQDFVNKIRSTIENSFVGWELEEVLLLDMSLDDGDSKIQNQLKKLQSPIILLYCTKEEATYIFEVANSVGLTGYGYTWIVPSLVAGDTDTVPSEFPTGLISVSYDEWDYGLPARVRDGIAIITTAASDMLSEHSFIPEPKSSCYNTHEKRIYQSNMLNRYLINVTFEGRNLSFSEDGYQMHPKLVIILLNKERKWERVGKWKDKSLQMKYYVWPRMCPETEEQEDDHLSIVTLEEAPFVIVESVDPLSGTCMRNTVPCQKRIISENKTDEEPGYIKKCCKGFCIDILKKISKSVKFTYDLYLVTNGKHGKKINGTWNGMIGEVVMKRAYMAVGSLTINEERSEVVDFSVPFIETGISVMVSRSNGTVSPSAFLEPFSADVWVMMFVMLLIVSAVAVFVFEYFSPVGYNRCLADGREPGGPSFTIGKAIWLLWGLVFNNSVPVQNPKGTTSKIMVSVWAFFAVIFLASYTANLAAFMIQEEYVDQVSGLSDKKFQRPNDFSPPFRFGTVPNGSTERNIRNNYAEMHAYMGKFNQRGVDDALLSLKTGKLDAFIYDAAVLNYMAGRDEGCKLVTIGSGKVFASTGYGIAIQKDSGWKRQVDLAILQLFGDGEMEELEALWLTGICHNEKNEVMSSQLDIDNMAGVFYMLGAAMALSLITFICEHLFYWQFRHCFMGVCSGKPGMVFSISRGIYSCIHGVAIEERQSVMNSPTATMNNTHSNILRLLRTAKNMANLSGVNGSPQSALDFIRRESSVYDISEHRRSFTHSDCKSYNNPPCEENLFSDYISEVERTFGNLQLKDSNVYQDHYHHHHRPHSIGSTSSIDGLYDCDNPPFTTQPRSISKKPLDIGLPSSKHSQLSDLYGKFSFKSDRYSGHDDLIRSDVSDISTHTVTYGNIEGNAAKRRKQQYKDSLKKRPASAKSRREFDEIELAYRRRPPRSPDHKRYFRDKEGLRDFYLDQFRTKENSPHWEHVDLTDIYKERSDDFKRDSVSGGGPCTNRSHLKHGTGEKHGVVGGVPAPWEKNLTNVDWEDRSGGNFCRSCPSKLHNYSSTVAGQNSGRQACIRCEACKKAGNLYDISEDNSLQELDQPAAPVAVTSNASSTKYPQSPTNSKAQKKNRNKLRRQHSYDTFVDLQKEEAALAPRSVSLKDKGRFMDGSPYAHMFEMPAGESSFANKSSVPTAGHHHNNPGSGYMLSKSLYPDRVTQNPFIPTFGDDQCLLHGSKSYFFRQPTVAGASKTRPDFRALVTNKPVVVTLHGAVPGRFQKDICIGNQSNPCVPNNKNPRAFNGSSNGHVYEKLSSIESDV

Cytochrome P450 2D6 = Cytochrome P450 2D6 (Homo sapiens, UniProt P10635); assay: Displacement of [3H]bufuralol from CYP2D6; format: ADME
Sequence of Cytochrome P450 2D6 (P10635 whole entry): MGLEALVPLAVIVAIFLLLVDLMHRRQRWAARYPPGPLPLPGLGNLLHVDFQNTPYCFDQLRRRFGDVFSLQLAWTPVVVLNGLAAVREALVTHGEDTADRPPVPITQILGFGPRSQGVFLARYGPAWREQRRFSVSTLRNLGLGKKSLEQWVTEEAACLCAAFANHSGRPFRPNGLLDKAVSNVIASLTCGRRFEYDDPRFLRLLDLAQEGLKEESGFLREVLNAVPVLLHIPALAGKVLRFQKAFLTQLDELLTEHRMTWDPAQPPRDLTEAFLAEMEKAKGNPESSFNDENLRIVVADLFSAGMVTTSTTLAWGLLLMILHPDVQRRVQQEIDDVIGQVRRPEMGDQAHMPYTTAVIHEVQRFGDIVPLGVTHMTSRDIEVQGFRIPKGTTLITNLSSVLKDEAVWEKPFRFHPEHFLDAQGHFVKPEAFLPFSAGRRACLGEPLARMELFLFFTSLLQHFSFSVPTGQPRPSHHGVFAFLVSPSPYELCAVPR

[2] = target: Voltage-gated inwardly rectifying potassium channel KCNH2 (Homo sapiens, UniProt Q12809); assay: Displacement of [3H]bufuralol from hERG channel expressed in HEK293 cells
Sequence of Voltage-gated inwardly rectifying potassium channel KCNH2 (Q12809 whole entry): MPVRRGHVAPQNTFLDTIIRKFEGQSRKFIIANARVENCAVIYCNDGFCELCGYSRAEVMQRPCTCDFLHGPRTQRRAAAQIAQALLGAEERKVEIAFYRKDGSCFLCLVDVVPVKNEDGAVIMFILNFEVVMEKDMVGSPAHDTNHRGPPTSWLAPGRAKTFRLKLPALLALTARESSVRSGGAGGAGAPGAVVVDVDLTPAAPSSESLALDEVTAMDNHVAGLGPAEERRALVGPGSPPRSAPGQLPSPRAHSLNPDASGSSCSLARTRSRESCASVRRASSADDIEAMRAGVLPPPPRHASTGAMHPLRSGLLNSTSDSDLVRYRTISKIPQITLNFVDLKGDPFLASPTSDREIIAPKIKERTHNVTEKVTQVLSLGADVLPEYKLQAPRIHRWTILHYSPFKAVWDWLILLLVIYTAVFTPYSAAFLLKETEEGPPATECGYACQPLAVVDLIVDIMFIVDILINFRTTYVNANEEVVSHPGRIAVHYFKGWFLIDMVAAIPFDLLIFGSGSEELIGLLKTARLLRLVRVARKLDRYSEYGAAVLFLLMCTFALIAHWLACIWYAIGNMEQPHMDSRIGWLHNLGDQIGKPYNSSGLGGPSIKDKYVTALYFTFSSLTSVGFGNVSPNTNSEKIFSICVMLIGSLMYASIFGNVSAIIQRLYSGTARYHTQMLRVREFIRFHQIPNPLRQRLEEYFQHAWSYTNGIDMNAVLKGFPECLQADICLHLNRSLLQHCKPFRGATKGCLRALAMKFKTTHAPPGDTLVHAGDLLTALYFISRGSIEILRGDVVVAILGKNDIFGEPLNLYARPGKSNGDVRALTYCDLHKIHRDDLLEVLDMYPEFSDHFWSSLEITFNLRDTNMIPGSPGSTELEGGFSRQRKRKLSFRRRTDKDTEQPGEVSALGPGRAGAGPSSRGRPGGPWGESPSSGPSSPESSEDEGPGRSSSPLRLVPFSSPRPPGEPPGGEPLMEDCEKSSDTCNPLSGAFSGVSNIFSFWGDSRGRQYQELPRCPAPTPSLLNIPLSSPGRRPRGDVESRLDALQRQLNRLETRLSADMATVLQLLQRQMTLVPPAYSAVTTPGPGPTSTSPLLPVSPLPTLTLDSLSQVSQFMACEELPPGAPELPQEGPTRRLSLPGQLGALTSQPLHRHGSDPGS

[3] = Ratio of Half life of compound in human liver microsome HHM0168 to half life in human liver microsome HHM0168 in presence of CYP2D6; format: ADME; settings: microsomes
Rattus norvegicus = assay: Effect on haloperidol catalepsy in po dosed rat assessed as latency to paw withdrawal; format: functional; settings: read-out: MED
hERG (KCNH2) = hERG (KCNH2) (Homo sapiens, UniProt Q12809); assay: Blockade of hERG channel expressed in HEK293 cells by electrophysiological method; format: cell-based; settings: HEK293 cells expressing hERG channel
Sequence of hERG (KCNH2) (Q12809 whole entry): as above

Row | Compound | pIC50 [1] | pIC50 (Cytochrome P450 2D6) | pIC50 [2] | Ratio [3] | minimal effective dose (Rattus norvegicus) | IC20 (hERG (KCNH2))
1 | CC(C(O)c1ccc(O)c(-c2ccccc2)c1)N1CCC(O)(c2ccc(F)cc2)CC1 (racemic) | 6.24 | 5.08 | – | – | – | –
2 | CC(C(O)c1ccc2[nH]c(=O)oc2c1)N1CCC(O)(c2ccc(F)cc2)CC1 (racemic) | 7.39 | 4.96 | 5.59 | 1 | – | –
3 | CC(C(O)c1ccc2c(c1)OCC(=O)N2)N1CCC(O)(c2ccc(F)cc2)CC1 (racemic) | 8.06 | < 4.52 | 5.80 | 1 | – | –
4 | CC(C(O)c1ccc2c(c1)CNC(=O)N2)N1CCC(O)(c2ccc(F)cc2)CC1 (racemic) | 8.04 | < 4.52 | 5.13 | 1 | – | –
5 | CC(C(O)c1ccc2c(c1)CN(C)C(=O)N2)N1CCC(O)(c2ccc(F)cc2)CC1 (racemic) | 7.85 | < 4.52 | 5.51 | 1 | – | –
6 | CC(C(O)c1ccc2c(c1)CCC(=O)N2)N1CCC(O)(c2ccc3c(c2)COCC3)CC1 (racemic) | 7.82 | – | 4.80 | – | > 30 mg/kg | –
7 | COc1cccc(C2(O)CCN(C(C)C(O)c3ccc4c(c3)CCC(=O)N4)CC2)c1 (racemic) | 8.08 | – | – | – | 30 mg/kg | –
8 | O=C1CCc2cc(C(O)CN3CCC(O)(c4cccc(F)c4)CC3)ccc2N1 (racemic) | 8.35 | – | 4.89 | – | – | –
9 | Cc1cc(C(O)C(C)N2CCC(O)(c3ccc(F)cc3)CC2)ccc1O (racemic) | – | > 6.52 | – | – | – | –
10 | Cc1cc(O)ccc1C(O)C(C)N1CCC(O)(c2ccc(F)cc2)CC1 (racemic) | 7.80 | 5.41 | – | > 4.5 | – | –
11 | CC(C(O)c1ccc(O)c(C(C)(C)C)c1)N1CCC(O)(c2ccc(F)cc2)CC1 (racemic) | < 5.30 | – | – | – | – | –
12 | Cc1ccc(C2(O)CCN(C(C)C(O)c3ccc4c(c3)CCC(=O)N4)CC2)cc1 (racemic) | 8.04 | – | – | – | – | –
13 | CC(C(O)c1ccc2c(c1)CCC(=O)N2)N1CCC(O)(c2cccc(COc3ccccc3)c2)CC1 (racemic) | 8.20 | – | – | – | – | –
14 | CC(C(O)c1ccc2c(c1)CCC(=O)N2)N1CCC(O)(c2ccc(Cl)cc2)CC1 (racemic) | 8.18 | – | – | – | 10 mg/kg | –
15 | CC(C(O)c1ccc(O)c(Cl)c1)N1CCC(O)(c2ccc(F)cc2)CC1 (racemic) | 8.25 | 5.46 | – | 1.6 | – | –
16 | CC(C(O)c1ccc2c(c1)COC(=O)N2)N1CCC(O)(c2ccc(F)cc2)CC1 (racemic) | 7.74 | < 4.52 | 5.62 | 1 | – | –
17 | CC(C(O)c1ccc2c(c1)CCC(=O)N2)N1CCC(O)(c2ccc(F)cc2)CC1 (racemic) | 7.96 | < 4.52 | – | – | – | –
18 | CC(C(O)c1ccc2c(c1)CCC(=O)N2)N1CCC(O)(c2cccc(F)c2)CC1 (racemic) | 8.00 | – | – | – | 10 mg/kg | –
19 | O=C1CCc2cc(C(O)CN3CCC(O)(c4cccc(F)c4)CC3)ccc2N1 (single isomer, unassigned; (+)) | 8.17 | – | 5.01 | – | – | –
20 | O=C1CCc2cc(C(O)CN3CCC(O)(c4cccc(F)c4)CC3)ccc2N1 (single isomer, unassigned; (-)) | 8.30 | – | 4.68 | – | – | 1.1 µM
21 | C[C@@H]([C@@H](O)c1ccc(O)cc1)N1CCC(O)(c2ccccc2)CC1 [TRAXOPRODIL] | – | – | 5.00 | – | – | 0.15 µM
